# Like-named read-outs stand apart in the source and are kept apart here.
# Experiments:
# [1] = target: PI3K α (Homo sapiens (Human), UniProt P42336); assay: PI3K enzyme inhibition assay (HTRF TR-FRET); type: biochemical
# Text: (§1) The PI3K enzymes catalyse the phosphorylation of phosphatidylinositol 4,5-biphosphate (PIP2) to phosphatidylinositol 3,4,5-triphosphate (PIP3) in the presence of ATP and Mg^2+ ions. The PIP3 product can be detected by displacement of biotin-PIP3 from energy transfer complexes consisting of europium labelled anti-GST monoclonal antibody, a GST-tagged Pleckstrin homology (PH) domain, biotinylated PIP3 and streptavidin-allophycocyanin (APC) by the time-resolved fluorescence resonance energy transfer (TR-FRET) (HTRF®PI3K enzyme assay, Millipore). Excitation, at 330 nm, of europium in the complex results in an energy transfer to the APC and a fluorescent emission at 665 nm although europium itself emits at its characteristic wavelength of 620 nm. The PIP3 product formed by PI3K activity displaces biotin-PIP3 from the complex and results in a loss of energy transfer (decreasing signal).
# (§2) The compound to be tested was added, at the desired final concentrations, to a mixture of PIP2 substrate and a recombinant PI3K enzyme (either α, β or δ isoforms, ex Millipore, or γ isoform [p110γ+p101 construct], ex United States Biological, Swampscott, Mass.) and the mixture incubated for 2 hr at RT. […] A stopping solution containing biotinylated PIP3 and the detection mix containing the GST tagged GRP1 pleckstrin homology (PH) domain and fluorophores were then added and the mixture was incubated at RT for 15-18 hr, prior to detection in a fluorescence microplate reader (Synergy 4, BioTek UK, Bedfordshire, UK).
# (§3) The results were calculated according to the formula: APC signal (emission at 665 nm)/europium signal (emission at 620 nm)×10^4.
# [2] = target: PI3K γ (Homo sapiens (Human), UniProt P48736); assay: PI3K enzyme inhibition assay (HTRF TR-FRET); type: biochemical
# Chain of PI3K γ (P48736 whole entry, species assumed): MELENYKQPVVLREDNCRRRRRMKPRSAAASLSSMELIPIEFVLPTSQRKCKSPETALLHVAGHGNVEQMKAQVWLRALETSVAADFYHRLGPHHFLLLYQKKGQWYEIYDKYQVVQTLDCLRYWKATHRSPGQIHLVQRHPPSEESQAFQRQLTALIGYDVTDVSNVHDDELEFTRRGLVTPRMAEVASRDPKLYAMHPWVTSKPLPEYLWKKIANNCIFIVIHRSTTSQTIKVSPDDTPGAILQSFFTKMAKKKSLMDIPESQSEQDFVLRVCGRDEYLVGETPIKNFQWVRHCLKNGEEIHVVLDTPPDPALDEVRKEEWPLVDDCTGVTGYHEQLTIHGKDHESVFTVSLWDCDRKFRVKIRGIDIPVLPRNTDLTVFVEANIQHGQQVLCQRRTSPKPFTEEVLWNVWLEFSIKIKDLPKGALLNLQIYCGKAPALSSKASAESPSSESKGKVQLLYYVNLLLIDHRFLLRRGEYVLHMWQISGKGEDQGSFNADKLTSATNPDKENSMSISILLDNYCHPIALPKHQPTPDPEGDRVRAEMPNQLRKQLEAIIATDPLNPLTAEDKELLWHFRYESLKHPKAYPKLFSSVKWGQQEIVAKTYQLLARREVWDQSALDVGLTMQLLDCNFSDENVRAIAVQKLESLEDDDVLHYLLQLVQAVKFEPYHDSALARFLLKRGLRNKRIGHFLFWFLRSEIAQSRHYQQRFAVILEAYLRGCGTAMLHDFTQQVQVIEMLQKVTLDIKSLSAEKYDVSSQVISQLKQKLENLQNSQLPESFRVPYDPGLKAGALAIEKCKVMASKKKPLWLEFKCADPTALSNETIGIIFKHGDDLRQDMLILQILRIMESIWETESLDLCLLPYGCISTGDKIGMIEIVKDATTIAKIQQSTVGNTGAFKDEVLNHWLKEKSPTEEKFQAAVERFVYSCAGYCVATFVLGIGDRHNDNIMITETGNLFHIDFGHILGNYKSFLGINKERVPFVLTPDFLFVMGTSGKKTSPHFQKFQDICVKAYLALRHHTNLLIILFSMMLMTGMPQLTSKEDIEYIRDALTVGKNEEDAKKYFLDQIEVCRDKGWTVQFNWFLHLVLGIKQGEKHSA
# Chain of PI3K γ (Q8WYR1 whole entry partner, species assumed): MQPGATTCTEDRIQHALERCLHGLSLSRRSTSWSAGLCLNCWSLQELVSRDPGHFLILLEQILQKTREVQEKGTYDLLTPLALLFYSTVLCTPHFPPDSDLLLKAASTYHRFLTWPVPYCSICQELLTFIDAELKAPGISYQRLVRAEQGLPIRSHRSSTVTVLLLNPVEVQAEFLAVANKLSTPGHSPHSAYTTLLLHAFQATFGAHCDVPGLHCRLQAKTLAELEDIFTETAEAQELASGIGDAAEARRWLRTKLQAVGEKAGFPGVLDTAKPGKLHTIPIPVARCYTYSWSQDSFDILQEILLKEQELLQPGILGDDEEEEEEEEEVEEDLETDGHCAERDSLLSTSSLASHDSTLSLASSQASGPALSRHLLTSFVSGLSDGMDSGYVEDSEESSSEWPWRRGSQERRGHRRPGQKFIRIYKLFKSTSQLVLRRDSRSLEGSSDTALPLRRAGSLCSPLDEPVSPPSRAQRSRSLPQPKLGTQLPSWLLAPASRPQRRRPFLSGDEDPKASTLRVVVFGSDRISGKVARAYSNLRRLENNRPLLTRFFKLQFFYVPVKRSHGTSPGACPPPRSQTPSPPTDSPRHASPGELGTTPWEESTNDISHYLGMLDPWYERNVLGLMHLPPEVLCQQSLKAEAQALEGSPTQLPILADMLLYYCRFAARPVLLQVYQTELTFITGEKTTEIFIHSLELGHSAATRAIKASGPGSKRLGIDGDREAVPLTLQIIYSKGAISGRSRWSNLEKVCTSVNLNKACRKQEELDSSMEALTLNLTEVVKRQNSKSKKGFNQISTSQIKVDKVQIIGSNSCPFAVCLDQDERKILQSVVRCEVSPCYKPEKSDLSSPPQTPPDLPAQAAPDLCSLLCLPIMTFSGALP
# Text: as §1, §2, §3
# [3] = target: PI3K δ (Homo sapiens (Human), UniProt O00329); assay: PI3K enzyme inhibition assay (HTRF TR-FRET); type: biochemical
# Chain of PI3K δ (O00329 whole entry, species assumed): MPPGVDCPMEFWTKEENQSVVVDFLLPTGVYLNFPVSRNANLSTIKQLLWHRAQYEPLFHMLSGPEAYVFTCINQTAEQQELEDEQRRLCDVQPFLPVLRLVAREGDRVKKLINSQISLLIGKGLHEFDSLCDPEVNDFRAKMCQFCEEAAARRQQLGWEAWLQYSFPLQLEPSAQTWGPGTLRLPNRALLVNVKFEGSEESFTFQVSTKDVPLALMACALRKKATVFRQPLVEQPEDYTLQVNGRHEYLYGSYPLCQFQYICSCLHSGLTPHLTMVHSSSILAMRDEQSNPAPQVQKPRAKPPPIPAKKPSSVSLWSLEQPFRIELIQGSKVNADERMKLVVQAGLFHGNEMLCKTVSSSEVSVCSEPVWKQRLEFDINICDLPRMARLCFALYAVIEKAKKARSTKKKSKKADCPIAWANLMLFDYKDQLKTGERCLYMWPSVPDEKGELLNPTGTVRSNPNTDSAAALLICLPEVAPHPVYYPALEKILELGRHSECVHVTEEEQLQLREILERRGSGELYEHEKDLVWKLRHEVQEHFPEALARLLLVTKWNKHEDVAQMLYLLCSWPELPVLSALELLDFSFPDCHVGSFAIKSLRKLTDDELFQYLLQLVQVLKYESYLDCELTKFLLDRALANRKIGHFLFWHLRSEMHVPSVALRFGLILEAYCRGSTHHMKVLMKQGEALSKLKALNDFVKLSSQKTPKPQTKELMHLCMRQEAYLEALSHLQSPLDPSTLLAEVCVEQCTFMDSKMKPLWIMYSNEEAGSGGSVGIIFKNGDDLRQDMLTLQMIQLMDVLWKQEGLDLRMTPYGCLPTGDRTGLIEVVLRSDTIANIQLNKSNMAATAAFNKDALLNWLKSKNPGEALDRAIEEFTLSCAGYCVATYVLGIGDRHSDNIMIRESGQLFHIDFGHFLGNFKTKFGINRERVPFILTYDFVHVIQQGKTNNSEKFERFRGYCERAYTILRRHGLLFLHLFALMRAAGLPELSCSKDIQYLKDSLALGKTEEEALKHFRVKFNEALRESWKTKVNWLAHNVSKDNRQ
# Chain of PI3K δ (P27986 whole entry partner, species assumed): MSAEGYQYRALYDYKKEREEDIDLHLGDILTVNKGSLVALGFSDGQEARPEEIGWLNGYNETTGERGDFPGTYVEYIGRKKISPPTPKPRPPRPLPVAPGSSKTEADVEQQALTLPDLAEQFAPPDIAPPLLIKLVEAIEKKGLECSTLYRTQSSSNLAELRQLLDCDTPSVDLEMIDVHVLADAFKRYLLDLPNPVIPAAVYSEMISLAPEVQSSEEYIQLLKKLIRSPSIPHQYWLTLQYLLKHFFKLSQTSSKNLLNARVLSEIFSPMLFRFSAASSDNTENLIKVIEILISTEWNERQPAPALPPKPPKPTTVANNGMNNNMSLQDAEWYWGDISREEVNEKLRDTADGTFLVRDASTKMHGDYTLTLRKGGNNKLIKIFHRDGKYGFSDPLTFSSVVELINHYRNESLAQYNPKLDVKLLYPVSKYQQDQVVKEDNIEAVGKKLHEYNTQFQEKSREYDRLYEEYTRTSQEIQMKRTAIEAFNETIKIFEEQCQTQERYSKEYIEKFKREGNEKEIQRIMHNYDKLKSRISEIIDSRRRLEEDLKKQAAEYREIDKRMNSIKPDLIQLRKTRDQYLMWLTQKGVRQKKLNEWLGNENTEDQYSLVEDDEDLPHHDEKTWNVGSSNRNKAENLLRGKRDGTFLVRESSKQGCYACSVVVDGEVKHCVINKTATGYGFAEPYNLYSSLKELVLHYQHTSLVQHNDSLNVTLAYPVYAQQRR
# Text: as §1, §2, §3
# [4] = system: LPS-induced airway neutrophilia in mice; assay: LPS-induced airway neutrophil accumulation in mice; type: in vivo, mouse; settings: i-t; for Neutrophil numbers in BALF: mean ± SEM
# Experimental: Non-fasted BALB/c mice (6-8 weeks old) were dosed with vehicle or with test compound by intra-tracheal administration (dose volume 20 μL) at time points T=−2 hr, −8 hr, or −12 hr with respect to the start of LPS treatment. The LPS was prepared in a solution of 0.5 mg/mL and aerosolised using a De Vibliss ultrasonic nebuliser 2000 (7 mL during 30 min exposure). At eight hr after LPS challenge, the trachea was cannulated and bronchoalveolar lavage fluid (BALF) extracted by infusing and then withdrawing PBS (1 mL) into the lungs via the tracheal catheter. This procedure was repeated to give a yield of approximately 2 mL lavage fluid. Total cell numbers in the BALF samples were measured using a haemocytometer. Cytospin smears of the BALF samples were prepared by centrifugation at 1200 rpm for 2 min at RT and stained using a DiffQuik stain system (Dade Behring) for differential cell counts. Cells were counted using oil immersion microscopy. Data are expressed as neutrophil number of cells per mL of BALF (mean±S.E.M).
# [5] = system: LPS-induced airway neutrophilia in rats; assay: LPS-induced airway neutrophil accumulation in rats; type: in vivo, rat; settings: i-t; for Neutrophil numbers in BALF: mean ± SEM
# Experimental: Non-fasted rats were dosed with either vehicle or the test compound by intra-tracheal administration (dose volume 100 μL) at time points T=−2 h, −8 h, or −12 h with respect to the start of LPS treatment. The LPS solution (0.3 mg/mL) was aerosolised using a De Vibliss ultrasonic nebuliser 2000 (7 mL during 30 min). At eight hr after LPS challenge, the trachea was cannulated and bronchoalveolar lavage fluid (BALF) extracted by infusing and then withdrawing PBS (1 mL) into the lungs via the tracheal catheter. This procedure was repeated to provide approximately 2 mL of lavage fluid.
# Total cell numbers in the BALF samples were measured using a Countess automated cell counter (Invitrogen). Cytospin smears of the BALF samples were prepared by centrifugation at 1200 rpm for 2 min at RT and stained using a DiffQuik stain system (Dade Behring) for differential cell counts. Cells were counted using oil immersion microscopy. Data are expressed as neutrophil number of cells per mL of BALF (mean±S.E.M).
# [6] = system: ovalbumin-induced airway eosinophilia and neutrophilia in mice; assay: Ovalbumin-induced airway eosinophil and neutrophil accumulation in mice; type: in vivo, mouse; settings: OVA-sensitized mice, i-t; for Cell numbers in BALF, Eosinophils / Cell numbers in BALF, Neutrophils: mean ± SEM
# Experimental: BALB/c mice (6-8 weeks old) were immunized with OVA (10 μg/mouse i.p.) on days 0 and 7. In order to elicit a local inflammatory response in the lung, mice were repeatedly challenged between days 13-15 with a nebulised solution of ovalbumin (10 mg/mL, 30 min exposure, De Vilibiss Ultraneb 2000). On day 17 each animal received via intra-tracheal administration of either vehicle or test compound 2 hr prior to the final OVA challenge. Animals were anaesthetized 8 hr later before undergoing a tracheotomy. BAL was obtained by instilling PBS (1 mL) into the lungs, which was then withdrawn. This procedure was repeated to provide approximately 2 mL of lavage fluid. Total cell numbers in the BALF samples were measured using a haemocytometer. Cytospin smears of the BALF samples were prepared by centrifugation at 200 rpm for 5 min at RT and stained using a DiffQuik stain system (Dade Behring) for differential cell counts. Cells were counted using oil immersion microscopy. Data is expressed as differential number of cells per mL of […] (mean±S.E.M).
# Chain of PI3K α (P42336 whole entry, species assumed): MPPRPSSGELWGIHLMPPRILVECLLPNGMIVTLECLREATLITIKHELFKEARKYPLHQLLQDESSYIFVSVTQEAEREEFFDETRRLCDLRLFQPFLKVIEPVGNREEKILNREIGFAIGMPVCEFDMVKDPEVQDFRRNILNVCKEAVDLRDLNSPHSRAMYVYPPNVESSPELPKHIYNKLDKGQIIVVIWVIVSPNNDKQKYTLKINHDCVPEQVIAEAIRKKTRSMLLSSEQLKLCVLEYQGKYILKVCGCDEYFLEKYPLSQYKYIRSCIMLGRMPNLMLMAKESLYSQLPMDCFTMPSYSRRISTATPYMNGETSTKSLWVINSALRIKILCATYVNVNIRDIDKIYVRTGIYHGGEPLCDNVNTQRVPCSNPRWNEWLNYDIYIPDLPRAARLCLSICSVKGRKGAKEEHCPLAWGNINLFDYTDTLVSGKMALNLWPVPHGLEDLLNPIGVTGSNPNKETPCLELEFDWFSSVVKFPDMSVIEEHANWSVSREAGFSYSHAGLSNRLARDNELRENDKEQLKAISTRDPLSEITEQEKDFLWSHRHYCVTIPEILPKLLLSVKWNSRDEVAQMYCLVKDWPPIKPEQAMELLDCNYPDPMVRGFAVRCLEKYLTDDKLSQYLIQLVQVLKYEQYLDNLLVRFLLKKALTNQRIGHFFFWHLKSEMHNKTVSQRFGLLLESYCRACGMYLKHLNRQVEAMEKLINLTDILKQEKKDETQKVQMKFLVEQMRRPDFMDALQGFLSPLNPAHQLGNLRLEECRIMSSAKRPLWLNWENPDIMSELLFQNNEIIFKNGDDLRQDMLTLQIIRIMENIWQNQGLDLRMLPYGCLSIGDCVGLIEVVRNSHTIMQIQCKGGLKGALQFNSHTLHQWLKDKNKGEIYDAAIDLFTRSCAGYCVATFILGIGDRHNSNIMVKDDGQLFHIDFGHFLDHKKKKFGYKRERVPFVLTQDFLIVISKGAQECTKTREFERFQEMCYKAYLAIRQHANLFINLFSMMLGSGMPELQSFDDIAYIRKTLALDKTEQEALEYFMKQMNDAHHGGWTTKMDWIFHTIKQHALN
# Chain of PI3K α (P27986 whole entry partner, species assumed): as the sequence (P27986 whole entry partner, species assumed) above
smiles,measurement,setting,value
"COCCOCCOCC#Cc1cccc2nc(Cn3nc(-c4cc(O)cc(F)c4)c4c(N)ncnc43)n(Cc3ccccc3C(F)(F)F)c(=O)c12 [Compound (I), 2-((4-Amino-3-(3-fluoro-5-hydroxyphenyl)-1H-pyrazolo[3,4-d]pyrimidin-1-yl)methyl)-5-(3-(2-(2-methoxyethoxy)ethoxy)prop-1-yn-1-yl)-3-(2-(trifluoromethyl)benzyl)quinazolin-4(3H)-one]",inhibitory activity versus PI3K α in enzyme assays (in words),[1],no inhibitory activity
same,IC50,"[1]; read-out: IC50 Values for PI3K inhibition at isozyme indicated, PI3K α",> 13900 nM
same,IC50,"[1]; read-out: PI3 Kinase Inhibition IC50 value at state isozyme, α",> 13900 nM
same,IC50,"[2]; read-out: IC50 Values for PI3K inhibition at isozyme indicated, PI3K γ",28 nM
same,IC50,"[2]; read-out: PI3 Kinase Inhibition IC50 value at state isozyme, γ",28 nM
same,IC50,"[3]; read-out: IC50 Values for PI3K inhibition at isozyme indicated, PI3K δ",2.5 nM
same,IC50,"[3]; read-out: PI3 Kinase Inhibition IC50 value at state isozyme, δ",2.5 nM
same,% inhibition of neutrophil numbers in BALF,"[4]; 0.05 mg/mL, pre-dose 2 hr",19%
same,Neutrophil numbers in BALF,"[4]; 0.05 mg/mL, pre-dose 2 hr",13.8 ± 2.5 x10^5/mL
same,% inhibition of neutrophil numbers in BALF,"[4]; 0.2 mg/mL, pre-dose 2 hr",53%
same,Neutrophil numbers in BALF,"[4]; 0.2 mg/mL, pre-dose 2 hr",8.0 ± 1.4 x10^5/mL
same,% inhibition of neutrophil numbers in BALF,"[4]; 0.2 mg/mL, pre-dose 8 hr",45%
same,Neutrophil numbers in BALF,"[4]; 0.2 mg/mL, pre-dose 8 hr",9.4 ± 2.0 x10^5/mL
same,% inhibition of neutrophil numbers in BALF,"[4]; 0.2 mg/mL, pre-dose 12 h",23%
same,Neutrophil numbers in BALF,"[4]; 0.2 mg/mL, pre-dose 12 h",13.1 ± 2.5 x10^5/mL
same,% inhibition of neutrophil numbers in BALF,"[4]; 1.0 mg/mL, pre-dose 2 hr",68%
same,Neutrophil numbers in BALF,"[4]; 1.0 mg/mL, pre-dose 2 hr",5.5 ± 0.9 x10^5/mL
same,% inhibition of neutrophil numbers in BALF,"[5]; 0.05 mg/mL, pre-dose 2 hr",9%
same,Neutrophil numbers in BALF,"[5]; 0.05 mg/mL, pre-dose 2 hr",13.2 ± 2.3 x10^5/mL
same,% inhibition of neutrophil numbers in BALF,"[5]; 0.2 mg/mL, pre-dose 2 hr",58%
same,Neutrophil numbers in BALF,"[5]; 0.2 mg/mL, pre-dose 2 hr",6.3 ± 1.6 x10^5/mL
same,% inhibition of neutrophil numbers in BALF,"[5]; 0.2 mg/mL, pre-dose 8 hr",33%
same,Neutrophil numbers in BALF,"[5]; 0.2 mg/mL, pre-dose 8 hr",10.1 ± 1.8 x10^5/mL
same,% inhibition of neutrophil numbers in BALF,"[5]; 0.2 mg/mL, pre-dose 12 h",10%
same,Neutrophil numbers in BALF,"[5]; 0.2 mg/mL, pre-dose 12 h",13.6 ± 2.7 x10^5/mL
same,% inhibition of neutrophil numbers in BALF,"[5]; 1.0 mg/mL, pre-dose 2 hr",73%
same,Neutrophil numbers in BALF,"[5]; 1.0 mg/mL, pre-dose 2 hr",4.1 ± 0.7 x10^5/mL
same,"% inhibition, Eosinophils in BALF",[6]; 0.05 mg/mL,20%
same,"% inhibition, Neutrophils in BALF",[6]; 0.05 mg/mL,18%
same,"Cell numbers in BALF, Eosinophils",[6]; 0.05 mg/mL,19.7 ± 3.2 x10^4/mL
same,"Cell numbers in BALF, Neutrophils",[6]; 0.05 mg/mL,8.0 ± 0.4 x10^4/mL
same,"% inhibition, Eosinophils in BALF",[6]; 0.2 mg/mL,85%
same,"% inhibition, Neutrophils in BALF",[6]; 0.2 mg/mL,70%
same,"Cell numbers in BALF, Eosinophils",[6]; 0.2 mg/mL,3.8 ± 0.9 x10^4/mL
same,"Cell numbers in BALF, Neutrophils",[6]; 0.2 mg/mL,2.9 ± 0.5 x10^4/mL
same,"% inhibition, Eosinophils in BALF",[6]; 1 mg/mL,91%
same,"% inhibition, Neutrophils in BALF",[6]; 1 mg/mL,80%
same,"Cell numbers in BALF, Eosinophils",[6]; 1 mg/mL,2.1 ± 0.4 x10^4/mL
same,"Cell numbers in BALF, Neutrophils",[6]; 1 mg/mL,2.0 ± 0.3 x10^4/mL

# Reference: patent US9227977B2, “Phosphoinositide 3-kinase inhibitors” (RESPIVERT LTD., priority 2013, dated 2016)
